Read-outs that look alike come from different tables or passages of the source.
What was measured:
Vero E6/TMPRSS2 cells [1] = assay type: cell-based
Method: A solution of each CyD derivative, prepared in DMEM supplemented with 10% FBS and 1 mg/mL G-418, was filtered and sterilized using a DISMIC-25cs 0.45 µm filter. […] After 24 h, the cells were treated with CyD derivatives and further incubated for 72 h in a humidified incubator at 37°C with 5% CO₂. Cytotoxicity was assessed under a microscope.

in vitro = settings: African green monkey
[2] = tested on: JEV Beijing-1 variant (procoagulant activity); assay type: biochemical, Japanese encephalitis virus
red blood cells = settings: cited from earlier work
[3] = target: SARS-CoV-2 spike protein-ACE2 binding (UniProt P0DTC2+Q9BYF1)
Vero E6/TMPRSS2 cells [4] = settings: CCK-8, tested up to 100 mM
Vero cells = assay type: cell-based; settings: CCK-8, tested up to 100 mM
Pichinde virus = settings: guinea pigs infected with Pichinde virus, treated 6-7 days after infection; cited from earlier work
[5] = Vero E6/TMPRSS2 cells, 72 h, microscope, twofold dilutions with 10 mM as highest concentration

SARS-CoV-2 spike protein-ACE2 binding, sequence (Q9BYF1 18-740, one chain of several): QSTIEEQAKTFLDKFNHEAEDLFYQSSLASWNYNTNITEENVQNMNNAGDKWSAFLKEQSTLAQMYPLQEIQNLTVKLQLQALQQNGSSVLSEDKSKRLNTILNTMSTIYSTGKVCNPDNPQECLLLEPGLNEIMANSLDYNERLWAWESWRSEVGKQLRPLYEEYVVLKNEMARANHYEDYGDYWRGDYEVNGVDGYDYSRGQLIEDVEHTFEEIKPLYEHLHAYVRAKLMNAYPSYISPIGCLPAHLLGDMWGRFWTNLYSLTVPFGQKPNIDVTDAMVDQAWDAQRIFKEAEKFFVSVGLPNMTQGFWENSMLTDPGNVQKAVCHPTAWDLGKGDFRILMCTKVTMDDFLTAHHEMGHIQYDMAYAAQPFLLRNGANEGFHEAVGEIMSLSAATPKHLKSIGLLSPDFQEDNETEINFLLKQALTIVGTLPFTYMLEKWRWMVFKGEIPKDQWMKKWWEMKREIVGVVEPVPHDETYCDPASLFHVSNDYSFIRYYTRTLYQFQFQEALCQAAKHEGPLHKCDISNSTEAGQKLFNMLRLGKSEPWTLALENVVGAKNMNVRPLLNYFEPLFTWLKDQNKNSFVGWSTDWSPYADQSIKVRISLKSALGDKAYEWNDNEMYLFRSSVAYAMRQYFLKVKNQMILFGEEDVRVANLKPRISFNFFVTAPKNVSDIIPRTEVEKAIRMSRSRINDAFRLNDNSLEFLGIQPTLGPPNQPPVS

## COC[C@H]1O[C@@H]2O[C@H]3[C@H](O)[C@@H](OC)[C@@H](O[C@H]4[C@H](O)[C@@H](OC)[C@@H](O[C@H]5[C@H](O)[C@@H](OC)[C@@H](O[C@H]6[C@H](O)[C@@H](OC)[C@@H](O[C@H]7[C@H](O)[C@@H](OC)[C@@H](O[C@H]1[C@H](O)[C@H]2OC)O[C@@H]7COC)O[C@@H]6COC)O[C@@H]5COC)O[C@@H]4COC)O[C@@H]3COC [DM-α-CyD]
Vero E6/TMPRSS2 cells [1]; [5]
  Highest non-toxic concentration: 2.50 mM

## COC[C@H]1O[C@@H]2O[C@H]3[C@H](O)[C@@H](OC)[C@@H](O[C@H]4[C@H](O)[C@@H](OC)[C@@H](O[C@H]5[C@H](O)[C@@H](OC)[C@@H](O[C@H]6[C@H](O)[C@@H](OC)[C@@H](O[C@H]7[C@H](O)[C@@H](OC)[C@@H](O[C@H]8[C@H](O)[C@@H](OC)[C@@H](O[C@H]1[C@H](O)[C@H]2OC)O[C@@H]8COC)O[C@@H]7COC)O[C@@H]6COC)O[C@@H]5COC)O[C@@H]4COC)O[C@@H]3COC [DM-β-CyD, 2,6-di-O-methyl-β-cyclodextrin]
In vitro
  CC50: 5.74 mM
[2]; 5 mM, 37°C
  effect on clotting time (JEV procoagulant activity): had no effect
Vero E6/TMPRSS2 cells [1]; African green monkey
  Highest non-toxic concentration: 5.00 mM
Red blood cells
  concentration causing 50% hemolysis: 1000 µM

## COC[C@H]1O[C@@H]2O[C@H]3[C@H](OC(C)=O)[C@@H](OC)[C@@H](O[C@H]4[C@H](OC(C)=O)[C@@H](OC)[C@@H](O[C@H]5[C@H](OC(C)=O)[C@@H](OC)[C@@H](O[C@H]6[C@H](OC(C)=O)[C@@H](OC)[C@@H](O[C@H]7[C@H](OC(C)=O)[C@@H](OC)[C@@H](O[C@H]8[C@H](OC(C)=O)[C@@H](OC)[C@@H](O[C@H]1[C@H](OC(C)=O)[C@H]2OC)O[C@@H]8COC)O[C@@H]7COC)O[C@@H]6COC)O[C@@H]5COC)O[C@@H]4COC)O[C@@H]3COC [DMA-β-CyD]
[3]
  effect on spike protein-ACE2 binding: did not interfere with this interaction
Vero E6/TMPRSS2 cells [4]
  CC50: ≥ 100 mM
[2]; 10 mM, 28°C
  effect on clotting time (JEV procoagulant activity): clotting time remained similar to that of the control
[2]; 10 mM, 37°C
  effect on clotting time (JEV procoagulant activity): prolonged
Vero cells
  CC50: ≥ 100 mM
Red blood cells; at 100 mM
  hemolysis: did not induce hemolysis

## COC[C@H]1O[C@@H]2O[C@H]3[C@H](OC)[C@@H](OC)[C@@H](O[C@H]4[C@H](OC)[C@@H](OC)[C@@H](O[C@H]5[C@H](OC)[C@@H](OC)[C@@H](O[C@H]6[C@H](OC)[C@@H](OC)[C@@H](O[C@H]7[C@H](OC)[C@@H](OC)[C@@H](O[C@H]8[C@H](OC)[C@@H](OC)[C@@H](O[C@H]1[C@H](OC)[C@H]2OC)O[C@@H]8COC)O[C@@H]7COC)O[C@@H]6COC)O[C@@H]5COC)O[C@@H]4COC)O[C@@H]3COC [TM-β-CyD]
Vero E6/TMPRSS2 cells [1]; [5]
  Highest non-toxic concentration: 1.25 mM

## OC[C@H]1O[C@@H]2O[C@H]3[C@H](O)[C@@H](O)[C@@H](O[C@H]4[C@H](O)[C@@H](O)[C@@H](O[C@H]5[C@H](O)[C@@H](O)[C@@H](O[C@H]6[C@H](O)[C@@H](O)[C@@H](O[C@H]7[C@H](O)[C@@H](O)[C@@H](O[C@H]1[C@H](O)[C@H]2O)O[C@@H]7CO)O[C@@H]6CO)O[C@@H]5CO)O[C@@H]4CO)O[C@@H]3CO [α-CyD]
Vero E6/TMPRSS2 cells [1]; [5]
  Highest non-toxic concentration: 5.00 mM

## OC[C@H]1O[C@@H]2O[C@H]3[C@H](O)[C@@H](O)[C@@H](O[C@H]4[C@H](O)[C@@H](O)[C@@H](O[C@H]5[C@H](O)[C@@H](O)[C@@H](O[C@H]6[C@H](O)[C@@H](O)[C@@H](O[C@H]7[C@H](O)[C@@H](O)[C@@H](O[C@H]8[C@H](O)[C@@H](O)[C@@H](O[C@H]1[C@H](O)[C@H]2O)O[C@@H]8CO)O[C@@H]7CO)O[C@@H]6CO)O[C@@H]5CO)O[C@@H]4CO)O[C@@H]3CO [β-CyD]
Vero E6/TMPRSS2 cells [1]; [5]
  Highest non-toxic concentration: ≥10.0 mM

## OC[C@H]1O[C@@H]2O[C@H]3[C@H](O)[C@@H](O)[C@@H](O[C@H]4[C@H](O)[C@@H](O)[C@@H](O[C@H]5[C@H](O)[C@@H](O)[C@@H](O[C@H]6[C@H](O)[C@@H](O)[C@@H](O[C@H]7[C@H](O)[C@@H](O)[C@@H](O[C@H]8[C@H](O)[C@@H](O)[C@@H](O[C@H]9[C@H](O)[C@@H](O)[C@@H](O[C@H]1[C@H](O)[C@H]2O)O[C@@H]9CO)O[C@@H]8CO)O[C@@H]7CO)O[C@@H]6CO)O[C@@H]5CO)O[C@@H]4CO)O[C@@H]3CO [γ-CyD]
Vero E6/TMPRSS2 cells [1]; [5]
  Highest non-toxic concentration: 2.50 mM

## hydroxypropyl-α-cyclodextrin [HP-α-CyD]
Vero E6/TMPRSS2 cells [1]; [5]
  Highest non-toxic concentration: ≥10.0 mM

B1: bavituximab (antibody, chains of the INN, looked up, V domains shown)
VH: EVQLQQSGPELEKPGASVKLSCKASGYSFTGYNMNWVKQSHGKSLEWIGHIDPYYGDTSYNQKFRGKATLTVDKSSSTAYMQLKSLTSEDSAVYYCVKGGYYGHWYFDVWGAGTTVTVSS
VL: DIQMTQSPSSLSASLGERVSLTCRASQDIGSSLNWLQQGPDGTIKRLIYATSSLDSGVPKRFSGSRSGSDYSLTISSLESEDFVDYYCLQYVSSPPTFGAGTKLELK
Pichinde virus
  animals survived: 50%
